Experiments:
[1] = system: mouse model with Parkinson's disease induced by MPTP administration; test: Grip strength test in MPTP-induced Parkinson's disease mouse model; assay type: in vivo; conditions: MPTP mice
Experimental: To cause the disease, mice in the G2, G3, G4, and G5 groups were administered MPTP dissolved in saline via an intraperitoneal route at 2-hour intervals four times a day (20 mg/kg/time), while the G1 group received the same amount of saline.
A grip strength test was performed on day 6 of the test. When a mouse put on a grip strength measuring device (SLD-5FGN, Duratool, China) pulled a net of the device, the measuring device automatically measured the animal's grip strength and expressed it in grams. The average value was measured through five tests per individual.

iNOS and COX-2 = iNOS and COX-2 protein expression in LPS-stimulated BV-2 cells (immunoblotting); assay type: cell-based, mouse; conditions: BV-2 cells, 3.33, 10 or 30 μM, 1 μg/mL LPS, 24 hours
Experimental: (§1) To further confirm the oxidative stress suppression effect, the content of nitrite released due to an inflammatory response and the expression levels of iNOS, which is an enzyme that produces nitric oxide, and COX-2, which is cyclooxygenase-2, were determined in mouse microglial cells (BV-2, ATCC, Manassas, VA, USA).
(§2) To determine the content of nitrite and the protein expression levels of iNOS and COX-2, BV-2 was seeded in a 12-well plate (Corning, MD, USA) at 1.5×10^5 cells/well, and cultured using a DMEM medium (Corning, MD, USA) containing 10% fetal bovine serum (Corning, MD, USA) and 100 U/ml of penicillin/streptomycin (Corning, MD, USA) at 37° C. in a 5% CO2 incubator for one day for stabilization. […] 1 μg/mL of LPS (Sigma, USA) was added to all experimental groups excluding the non-inflammation-induced group and allowed to react at 37° C. in a 5% CO2 incubator for 24 hours.
The cells from which the cell culture solution was harvested were disrupted by adding a RIPA buffer containing a protease inhibitor cocktail (Thermo Fisher Scientific), and centrifuged at 14,000 rpm for 15 minutes at 4° C. to obtain a cell extract. Equal amounts of the cell extract were loaded, and proteins were separated through SDS-PAGE and then transferred to a PVDF membrane. […]

cereblon (CRBN) = cereblon (CRBN) (Homo sapiens, UniProt Q96SW2); test: In vitro CRBN binding assay (AlphaScreen, competitive inhibition of the PROTAC assay)
[2] = Cytotoxicity evaluation, CCK analysis kit; assay type: cell-based; conditions: human, MM.1S (CRL-2974) multiple myeloma cells; MM.1S cells, treated for 3 days
Experimental: The MM.1S (CRL-2974) cell line, which is a human multiple myeloma cell line, was purchased from the American Type Culture Collection (ATCC, Manassas, VA, USA) and used, and incubated using RPMI1640 medium (Corning, MD, USA) supplemented with 10% fatal bovine serum (Corning, MD, USA), 100 U/ml of penicillin (Corning, MD, USA), and 100 μg/ml of streptomycin (Corning, MD, USA) at 37° C. in a 5% CO2 incubator for 24 hours.

[3] = Stability of 3-MP in human plasma (UPLC-MS); assay type: in vitro ADME
Experimental: To plot a standard calibration curve, the stock sample was diluted by half with acetonitrile from 125 to 0.39 μg/mL to prepare standard solutions for a total of 10 samples at different concentrations, and the calibration curve was plotted as shown in FIG. 6A.
For the experiment of verifying stability in plasma, 10 μL of the test drug prepared at a concentration of 100 μg/mL was added to 90 μL of human plasma and mixed for 30 seconds, and then immediately after the addition, the plasma-mixed test drug was incubated for 15, 30, 60, or 120 minutes to prepare samples. Afterward, 400 μL of 100% ethyl acetate was added to each sample and extracted using a vortex mixture for 1 minute. […] Initially, the mobile phase B was increased from 5% to 95% until 9 minutes and analyzed, the mobile phase B was maintained 95% until 12 minutes, and then the mobile phase B was lowered to 5% and equilibrated, and used in the subsequent analysis. the flow rate of the mobile phase was 0.3 mL/min, the sample injection volume was 2 μL, and the mass spectrometer was operated in the ESI-positive mode. The spray voltage was set to 3.5 kV, and the flow rates of the nitrogen sheath gas, auxiliary gas, and sweep gas were analyzed as 50, 10, and 1 (arbitrary units), respectively. […]

BV-2 cells = test: Nitrite content in culture solution of LPS-stimulated BV-2 cells (Griess Reagent System); assay type: cell-based, mouse; conditions: BV-2 cells, 3.33, 10 or 30 μM, 1 μg/mL LPS, 24 hours
Experimental: as §1, §2
The cell culture solution was collected to measure the content of nitrite, and centrifuged at 3,000 rpm for 5 minutes to obtain a supernatant. The concentration of nitrite in the cell culture solution was measured using a microplate reader (NEO2MALPHAB Synergy Neo-2, BioTek, CA, US) according to the manual of the Griess Reagent System (#G2930, Promega, WI, USA).

Nc1cccc2c1C(=S)N(C1CCC(=O)NC1=O)C2=O (centres unmarked) [3-MP, 3-thiopomalidomide]
grip strength ([1]; oral, 90 mg/kg): recovered to a level similar to that of the vehicle administration group | grip strength ([1]; oral, 10, 30, 90 mg/kg/day, versus MPTP group): increased in a concentration-dependent manner | expression of oxidative stress-associated proteins (iNOS and COX-2) (iNOS and COX-2): effectively reduced | IC50 (cereblon (CRBN)): 190 nM | IC50 at 3 days [2]: ≥ 50000 nM | stability in plasma over time ([3]; 0 to 120 minutes): maintained without significant changes | plasma level ([3]; immediately after plasma addition (0 minutes)): 80 µg/mL | amount of nitrite released by LPS (BV-2 cells): effectively reduced the amount of the residual nitrite released by LPS
